The values that follow come from patent publication US11219623B2, “Inflammasome inhibition for the treatment of Parkinson's disease, Alzheimer's disease and multiple sclerosis” (University of Kentucky Research Foundation, priority 2015, dated 2022).

What is called solubility is the dissolved amount per volume that the medium holds. Usually logP stands for a log measure of how a compound divides between an organic and an aqueous phase. A high value points to a more lipophilic compound.

For one data set, the system named is NLRP3 mRNA. The data set can be described thus: NLRP3 priming (mRNA) induced by Alu RNA, primary human RPE cells. The data set is classed as cell-based. To be noted: 100 uM; 16 hours; normalized to 18S RNA. The protocol:
Indeed, as provided in the bar graph of FIG. 13, Alu RNA transfection increases NLRP3 mRNA levels in primary human RPE cells at 16 hours, an event termed “priming” (Y-axis) compared to mock (transfection reagent alone).

The next data set relates to mice. The data set can be described thus: Iron-induced RPE degeneration in mice. The following applies: intraperitoneal 25 mg/kg days 1 to 6; read day 7. The data set is classed as in vivo, mouse.
Data set [1] relates to mitochondrial reactive oxygen species (mtROS). The data set can be described thus: Mitochondrial ROS caused by Alu expression, MitoSox assay, primary human RPE cells. Type of data set: cell-based. The protocol: After 15 hours cells were co-stained for mtROS (red) and for cell count, nuclei (blue; Hoechst DNA stain).
In FIG. 54, mitochondrial reactive oxygen species (ROS) were visualized with MitoSox (Red) and cell nuclei with Hoechst (Blue).

A further data set is described as follows: Solubility in water. To be noted: aqueous buffer; Water pH 7.2 at 37° C. The data set is classed as physicochemical.
Data set [2] can be described thus: LogP, partition coefficient in 1-octanol. Type of data set: physicochemical. The following applies: 1-octanol partition.
The nature of data set [3]: NLRP3- and P2X7-driven model of sterile liver inflammation. To be noted: in vivo. The text has this: To explore the potential therapeutic relevance of NRTIs beyond the Alu-induced model of geographic atrophy (GA), it was hypothesized that if NRTIs function as generic inflammasome inhibitors, then they might be broadly useful in other animal models of disease that are also driven by P2X7.

Data set [4] relates to human LINE-1 retrotransposon. The data set can be described thus: EGFP cell culture L1 retrotransposition assay in HeLa cells. The data set is classed as cell-based. The following applies: 7 days after transfection, flow cytometry. The protocol:
These findings pave way for the rational re-design and improvement of nucleoside analogs as novel therapeutics. The enhanced green fluorescent protein (EGFP) cell culture L1 retrotransposition assay was performed in HeLa cells. […] Transfected cells were selected in puromycin. 7 days after transfection, cells that underwent retrotransposition (EGFP-positive) were assayed by flow cytometry. Cells were gated based on background fluorescence of plasmid JM111, which has two point mutations in L1-ORF1 that abolish retrotransposition. Data are normalized with RPS set to 1.
(In general: Flow cytometry measures light scatter and fluorescence of single cells or particles in a stream.)

Another data set has as its system IRAK4. As to the kind of experiment: Alu RNA-induced IRAK4 phosphorylation, primary mouse RPE cells. The data set is classed as cell-based.
The test system of the next data set is IL-1 beta. As to the kind of experiment: LPS/ATP-induced IL-1 beta secretion, mouse bone marrow-derived macrophages. The data set is classed as cell-based. To be noted: primary mouse bone marrow-derived macrophages. The text has this:
To determine whether LPS/ATP-induced inflammasome activation can be inhibited without RT inhibition, the present inventors utilized thymidine kinase-deficient (Raji/TK^−) and -expressing (Raji/TK^+) cells (Balzarini et al., 1989).

The subject of data set [5] is Caspase-1. As to the kind of experiment: Nigericin-induced Caspase-1 activation, mouse bone marrow-derived macrophages. To be noted: 100, 250 uM. Type of data set: cell-based.
Another data set deals with HeLa cells. As to the kind of experiment: Cytotoxicity of Alu RNA expression plasmid (pAluA), MTS proliferation assay. The data set is classed as cell-based, human. The following applies: pAluA vs pUC19. The text has this:
Meanwhile, in certain embodiments, […] protects against cytotoxicity induced by plasmid expressing Alu RNA in vitro.
A general note: Tetrazolium assays rely on reduction of a dye to a coloured formazan, in cell work by metabolically active cells.

Data set [6] has as its system primary human RPE cells. The data set can be described thus: ATP release induced by Alu RNA, ATP-dependent luciferase assay, primary human RPE cells. Type of data set: cell-based. To be noted: cell culture supernatant. The source says: Alu RNA (Kerur et al., 2013) and LPS/ATP (Qu et al., 2011) activate the inflammasome via the ATP receptor P2X7.
(FIG. 16) Primary human RPE cells treated with Alu RNA for the times indicated release ATP. […] ATP was detected using an ATP-dependent luciferase assay.

Data set [7] has as its system primary human RPE cells. As to the kind of experiment: Extracellular potassium after Alu RNA transfection, potassium-dependent pyruvate kinase assay. Type of data set: cell-based. To be noted: 6 hours. As for the experimental part:
For FIG. 18, potassium levels were determined in cell culture supernatants spectrophotometrically using a potassium-dependent pyruvate kinase assay.

Data set [8] has as its system Caspase-1. As to the kind of experiment: LPS/ATP-induced Casp-1 activation, primary human RPE cells. Type of data set: cell-based. To be noted: 25/100 uM. The source says:
The loading control in FIG. 8 is vinculin. Furthermore, as shown, LPS and ATP activate the NLRP3 inflammasome only in combination, thus treatment with one or the other alone is useful as a control for this experiment.

In the next data set the test system is Alu RNA. As to the kind of experiment: Alu RNA levels, Northern blotting, primary human RPE cells. The data set is classed as cell-based. The text has this: As presented in FIG. 3, primary human RPE cells treated with antisense oligonucleotides targeting DICER1 (Dcr as) (lane 3 (third lane from left)) show increased Alu RNA levels in the nuclear compartment compared to control antisense oligonucleotides (Ctr as) (lane 1 (leftmost)), monitored by Northern blotting using an Alu-specific probe.
For example, primary human RPE cells may be transfected with Alu RNA, with or without d4T. […] U6 (bottom row) is shown as loading control for nuclear fraction in FIG. 4.
And FIG. 45 presents a Northern blot of biotin-UTP-labeled Alu RNA-transfected primary human RPE cells.

Molecules are shown by their SMILES. ≈ marks a conversion by molar mass, not a printed value. Entries after “also recorded” stand apart in the source; their conditions may differ.

For the compound `Cc1cn([C@H]2C=C[C@@H](CO)O2)c(=O)[nH]c1=O` [d4T, 2′3′ dideoxythymidine], the “NLRP3 mRNA levels (priming) induced by Alu RNA” value in the data set with NLRP3 mRNA is listed as “reduces NLRP3 priming”. In addition, the “Iron-induced RPE degeneration” value in the data set with mice is given as “blocked the development of RPE degeneration”. Besides, the “mitochondrial ROS caused by Alu expression (pAluA)” value in [1] is reported as “reduces mitochondrial ROS; also recorded: prevents pAlu-induced mitochondrial ROS generation”. The same compound displayed a solubility in “Solubility in water” of 106 mg/mL (≈ 473 mM). The logP in data set [2] was -0.23. Moreover, the “neutrophil migration to the focus of liver injury” value in data set [3] was “reduced neutrophil migration”. Moreover, the “L1 retrotransposition (EGFP-positive cells)” value in [4] is reported as “blocked L1 retrotransposition”. In addition, the “IRAK4 phosphorylation induced by Alu RNA” value in the data set with IRAK4 is “blocks phosphorylation of IRAK4”. The “secretion of mature IL-1 beta upon LPS/ATP” value in the data set with IL-1 beta is recorded as “blocks secretion of mature IL-1 beta”. Further, in the data set with Caspase-1 [5], the “Caspase-1 activation (active p20 band) induced by nigericin” value was “inhibits”. Further, in the data set on HeLa cells, the “cell death induced by Alu overexpression (viability, MTS)” value was “prevented cell death”. For the same compound, in the data set with primary human RPE cells [6], the “ATP release induced by Alu RNA” value is “does not block release of ATP; also recorded: did not affect ATP release”. In addition, in the data set with primary human RPE cells [7], the “extracellular potassium levels after Alu RNA transfection” value is reported as “reduces extracellular potassium levels”. Besides, the “Casp-1 activation induced by LPS/ATP” value in the data set with Caspase-1 [8] is “blocks Casp-1 activation”. Moreover, the “Alu RNA levels, nuclear compartment” value in the data set on Alu RNA (cells treated with antisense oligonucleotides targeting DICER1) is listed as “does not reduce Alu RNA levels”. In the data set with Alu RNA (nuclear fraction 1, 4, or 24 hours (FIG. 4), biotin-UTP-labeled Alu RNA (FIG. 45)), the “Alu RNA levels after Alu RNA transfection” value was “does not change Alu RNA levels; also recorded: did not reduce Alu RNA levels”.
